Earlier results as cited in PMC7247160, “Inhibitors of DNA Glycosylases as Prospective Drugs” (International Journal of Molecular Sciences, 2020).
Like-named read-outs stand apart in the source and are kept apart here.

Assays:
[1] = system: D4/A20 complex; details: UNG (D4), vaccinia virus; read-out: IC50 for DNA polymerase activity in the presence of the D4/A20 complex
[2] = system: NEIL1; details: NEIL1, human; read-out: I50
[3] = system: UNG; details: for IC50: UNG, human, read-out: I50
[4] = system: NEIL2; set-up: method as in PMID 23138988; details: NEIL2, human; read-out: I50
[5] = system: NTHL1; set-up: method as in PMID 23138988; details: NTHL1, human; read-out: I50
[6] = system: OGG1; details: OGG1, human; read-out: I50
[7] = system: Nei2; set-up: method as in PMID 28955788; details: Nei2, Mycobacterium tuberculosis
[8] = system: UNG; set-up: method as in PMID 23400284; details: species not specified, read-out: I50
[9] = system: UNG
[10] = system: MPG; set-up: method as in PMID 25650313; details: human, read-out: I50
[11] = system: Fpg; details: for Fpg inhibition (in words): free damaged base analogs
[12] = target: Fpg; details: E. coli
[13] = system: Fpg; set-up: method as in PMID 25143530; details: Lactococcus lactis, read-out: I50
[14] = system: MTH1; details: MTH1, human; read-out: I50
[15] = system: UNG; remark: listed apart in the source
[16] = system: OGG1; set-up: method as in PMID 30442810; details: mouse model
[17] = system: OGG1; set-up: method as in PMID 30442810; details: OGG1, mouse; read-out: I50
[18] = target: MutY; details: read-out: Kd or Ki directly measured
[19] = read-out: Kd or Ki directly measured

## Oc1ccc(NCc2ccccc2OCc2ccccc2)cc1 [C00012]
[1]
  IC50: 5.1 µM

## Cc1cc(/C=C/C#N)cc(C)c1Nc1nc(Nc2ccc3c(c2)CCC3)c2nc[nH]c2n1 [C00028 R = C00031]
[2]
  IC50: 8.9 µM

## O=C(O)c1cccc(C=NOCCON=Cc2cc(=O)[nH]c(=O)[nH]2)c1 [C00003 R1 = C00004 R2 = COOH, R3 = H]
[3]; bipartite inhibitors
  IC50: 40 µM

## CCn1cnc2c(Nc3cccc(C)c3)nc(N[C@@H]3CCCC[C@@H]3N)nc21 [C00027]
[2]
  IC50: 25 µM

## O=C(O)/C=C/C(=O)CC(=O)CC(=O)O [Fumarylacetoacetate]
[4]
  IC50: 0.032 µM
[5]
  IC50: 1 µM
[6]
  IC50: 1 µM
[2]
  IC50: 0.006 µM

## CCCCCc1cc(O)cc2c1Oc1cc(O)cc(C(=O)CCCC)c1C(=O)O2 [norlobaric acid]
[7]; read-out: I50
  IC50: 42 µM
[7]; [19]
  Ki: 0.074 µM

## gentamicin
[8]
  IC50: 1500 µM
[9]; UNG, E. coli, read-out: I50
  IC50: 420 µM

## O=c1cc(/C=N/OCC(CO/N=C/c2ccc(O)c(O)c2)CO/N=C/c2ccc(O)c(O)c2)[nH]c(=O)[nH]1 [C00009 R1 = R2 = 3,4-dihydroxyphenyl]
[3]; triskelion inhibitors
  IC50: 1.6 µM

## O=c1cc(/C=N/OCC(CO/N=C/c2ccc(O)c(O)c2)CO/N=C/c2cc(=O)[nH]c(=O)[nH]2)[nH]c(=O)[nH]1
[3]; triskelion inhibitors
  IC50: 0.9 µM

## O=C(O)c1cccc(/C=N/OCC(CO/N=C/c2cccc(C(=O)O)c2)CO/N=C/c2cc(=O)[nH]c(=O)[nH]2)c1 [C00009 R1 = R2 = 3-carboxyphenyl]
[3]; triskelion inhibitors
  IC50: 1.7 µM

## O=C(O)c1cccc(CNCCCON=Cc2cc(=O)[nH]c(=O)[nH]2)c1 [C00003 R1 = C00006 R2 = COOH, R3 = H]
[3]; bipartite inhibitors
  IC50: 100 µM

## O=c1cc(/C=N/OCCCO/N=C/c2cc(O)c(O)cc2Br)[nH]c(=O)[nH]1 [C00002 R = Br]
[3]; bipartite inhibitors
  IC50: 40 µM

## O=C(O)c1cccc(C=NOCCCNCc2cc(=O)[nH]c(=O)[nH]2)c1 [C00003 R1 = C00005 R2 = COOH, R3 = H]
[3]; bipartite inhibitors
  IC50: 1.6 µM

## O=c1c(O)c(-c2ccc(O)cc2O)oc2cc(O)cc(O)c12 [Morin]
[10]
  IC50: 2.6 µM

## Cc1nc2ccc(Nc3nc(Nc4c(C)cc(/C=C/C#N)cc4C)nc4[nH]cnc34)cc2s1 [C00028 R = C00030]
[2]
  IC50: 7.9 µM

## CN(C=O)c1c(N)nc(N)[nH]c1=O [2,6-diamino-4-oxo-5-(N-methylformamido)pyrimidine]
[11]
  Fpg inhibition (in words): weakly inhibited

## Nc1c(S(=O)(=O)O)cc(Nc2ccc(Nc3nc(Cl)nc(Nc4ccccc4S(=O)(=O)O)n3)c(S(=O)(=O)O)c2)c2c1C(=O)c1ccccc1C2=O [Cibacron Blue F3GA]
[12]; [19]
  Ki: 0.005 µM

## O=c1cc(/C=N/OCCCO/N=C/c2cc(O)c(O)cc2O)[nH]c(=O)[nH]1 [C00002 R = OH]
[3]; bipartite inhibitors
  IC50: 0.26 µM

## O=c1cc(/C=N/OCCCO/N=C/c2cc(O)c(O)cc2Cl)[nH]c(=O)[nH]1 [C00002 R = Cl]
[3]; bipartite inhibitors
  IC50: 16 µM

## Nc1cc(N)c(N=O)c(N)n1 [5-nitroso-2,4,6-triaminopyridine]
[11]
  Fpg inhibition (in words): weakly inhibited

## O=C(O)c1cccc(CNCCCCNCc2cc(=O)[nH]c(=O)[nH]2)c1 [C00003 R1 = C00007 R2 = COOH, R3 = H]
[3]; bipartite inhibitors
  IC50: 315 µM

## O=c1cc(/C=N/OCCCO/N=C/c2ccc(O)c(O)c2)[nH]c(=O)[nH]1 [C00002 R = H]
[3]; bipartite inhibitors
  IC50: 1.1 µM

## O=c1cc(/C=N/OCCCO/N=C/c2cc(O)c(O)cc2[N+](=O)[O-])[nH]c(=O)[nH]1 [C00002 R = NO2]
[3]; bipartite inhibitors
  IC50: 40 µM

## NC(=O)c1cccc(-c2ccc(S(=O)(=O)Nc3ccc4c(c3)N(C(=O)C3CC3)CCC4)cc2)c1 [C00025]
[6]
  IC50: 0.059 µM

## O=c1cc(/C=N/OCCCO/N=C/c2cc(O)c(O)cc2F)[nH]c(=O)[nH]1 [C00002 R = F]
[3]; bipartite inhibitors
  IC50: 2.7 µM

## 2-thioxanthine
[13]
  IC50: 100 µM
[12]; read-out: I50
  IC50: 17 µM
[11]; oxidizes zinc finger cysteines, not a true inhibitor, read-out: IC50, ability to suppress Fpg activity
  IC50: 10 to 100 µM

## Cc1cnc(N)nc1CCCNC(=O)c1cccc(-c2ccc(S(=O)(=O)Nc3ccc4c(c3)N(C(=O)C3CC3)CCC4)cc2)c1 [SU0383]
[14]
  IC50: 0.034 µM
[6]
  IC50: 0.49 µM

## N#C[C@]1(n2ccc(=O)[nH]c2=O)C[C@H](O)[C@@H](COP(=O)(O)OP(=O)(O)OP(=O)(O)O)O1 [1′-cyano-2′-deoxyuridine triphosphate]
[3]; human UNG, nucleotide incorporated into DNA
  Ki: nanomolar
[9]; E. coli Ung, nucleotide incorporated into DNA
  Ki: nanomolar

## O=C(O)c1ccc(C=NOCCON=Cc2cc(=O)[nH]c(=O)[nH]2)cc1 [C00003 R1 = C00008 R2 = H, R3 = COOH]
[3]; bipartite inhibitors
  IC50: 6 µM

## Cc1cc(/C=C/C#N)cc(C)c1Nc1nc(Nc2ccc3c(c2)OCO3)c2nc[nH]c2n1 [C00028 R = C00032]
[2]
  IC50: 10 µM

## O=C(NN=C1CCCCC1)c1cc2ccccc2cc1O [C00022]
[6]
  IC50: 0.34 µM

## NNC(=O)c1sc2cccc(Cl)c2c1Cl [C00018]
[6]
  IC50: 0.22 µM

## O=C(O)c1cccc(/C=N/OCC(CO/N=C/c2cc(=O)[nH]c(=O)[nH]2)CO/N=C/c2cc(=O)[nH]c(=O)[nH]2)c1
[3]; triskelion inhibitors
  IC50: 0.9 µM

## CCCCCCCCc1ccc(Nc2cc(=O)[nH]c(=O)[nH]2)cc1 [C00001 R1 = n-octyl R2 = H, 6-(p-n-octylanilino)uracil]
[3]
  IC50: > 300 µM
[15]; UNG, HSV1, read-out: I50
  IC50: 8 µM
[15]; herpes simplex type 1 UNG, read-out: IC50 for the viral enzyme
  IC50: ~8 µM

## O=C(Nc1ccc(I)cc1)N1CCC(n2c(=O)[nH]c3c(Br)cccc32)CC1 [TH5487]
[16]
  Effect on inflammatory response: downregulates the inflammatory response
[17]
  IC50: 0.34 µM

## Nc1cc(=O)[nH]c(N)c1N=O [5-nitroso-4,6-diamino-2-oxopyridine]
[11]
  Fpg inhibition (in words): weakly inhibited

## Cc1ccc(C(=O)Nc2ccc(S(=O)(=O)O)c3cc(S(=O)(=O)O)cc(S(=O)(=O)O)c23)cc1NC(=O)c1cccc(NC(=O)Nc2cccc(C(=O)Nc3cc(C(=O)Nc4ccc(S(=O)(=O)O)c5cc(S(=O)(=O)O)cc(S(=O)(=O)O)c45)ccc3C)c2)c1 [suramin]
[18]
  Kd: 16 µM

## Cc1cc(/C=C/C#N)cc(C)c1Nc1nc(Nc2ccc3scnc3c2)c2nc[nH]c2n1 [C00028 R = C00029]
[2]
  IC50: 4 µM
